Reference: patent US12077555B2, “STAT degraders and uses thereof” (Kymera Therapeutics, Inc., priority 2019, dated 2024)

How the values were obtained:
STAT3 [1] = test: STAT3 RT-qPCR assay, STAT3 mRNA; assay type: cell-based; details: SU-DHL-1 cells, FIG. 5A, FIG. 15
Protocol: (§1) SU-DHL-1 cells were treated with compounds for a designed time. 0.3-0.6 mL lysis buffer with 2-mercaptoethanol was added to the collected cell pellet or monolayer cells. The cells were vortexed until the cell was dispersed and the cells appear lysed. One volume of 70% ethanol was added to each volume of cell homogenate and vortex. 700 μL of the sample was transferred to the spin cartridge and centrifuged at 12000 g for 15s at RT. The flow-through was discarded and the process repeated until the entire samples had been processed. 700 ul wash buffer I was added to the spin cartridge and centrifuged at 12000 g for 15s at RT and the flow-through was discarded. 500 μL wash buffer II with ethanol was added to the spin cartridge and centrifuged at 12000 g for 15s at RT and the flow-through was discarded. The process was then repeated. The spin cartridge was centrifuged at 12000 g for 2 min to dry the membrane with bound RNA. 30-100 μL RNase-free water was added to the center of the spin cartridge and incubated for 1 min at RT. […] The concentration of the RNA was quantitated using Nano-Drop. cDNA was formed from the RNA by reverse transcription and qPCR of the cDNA with primer of the gene of interest and housekeeping gene was preformed using the volumes below: […]

ALK+ALCL cell lines = test: growth inhibition in multiple ALK+ALCL cell lines; assay type: cell-based; details: dose response curves, FIG. 16
DEL cells = test: CellTiter-Glo cell viability, DEL; assay type: cell-based
SU-DHL-1 = test: STAT3 decrease needed for SU-DHL-1 apoptosis and cell growth inhibition (FIG. 8, 17); assay type: cell-based
Description: FIG. 8 depicts that a decrease of STAT3 by 90% using I-103 is necessary to induce SU-DHL-1 apoptosis and inhibit cell growth.
FIG. 17 depicts that a decrease of STAT3 by 90% using I-174 and I-94 is necessary to induce SU-DHL-1 apoptosis and inhibit cell growth.

STAT3 [2] = target: STAT3 (Homo sapiens, UniProt P40763); test: STAT3 degradation (DC50) in multiple ALK+ALCL cell lines; assay type: cell-based; details: dose response curves, FIG. 14
Chain of STAT3 (Homo sapiens, UniProt P40763) (P40763 whole entry): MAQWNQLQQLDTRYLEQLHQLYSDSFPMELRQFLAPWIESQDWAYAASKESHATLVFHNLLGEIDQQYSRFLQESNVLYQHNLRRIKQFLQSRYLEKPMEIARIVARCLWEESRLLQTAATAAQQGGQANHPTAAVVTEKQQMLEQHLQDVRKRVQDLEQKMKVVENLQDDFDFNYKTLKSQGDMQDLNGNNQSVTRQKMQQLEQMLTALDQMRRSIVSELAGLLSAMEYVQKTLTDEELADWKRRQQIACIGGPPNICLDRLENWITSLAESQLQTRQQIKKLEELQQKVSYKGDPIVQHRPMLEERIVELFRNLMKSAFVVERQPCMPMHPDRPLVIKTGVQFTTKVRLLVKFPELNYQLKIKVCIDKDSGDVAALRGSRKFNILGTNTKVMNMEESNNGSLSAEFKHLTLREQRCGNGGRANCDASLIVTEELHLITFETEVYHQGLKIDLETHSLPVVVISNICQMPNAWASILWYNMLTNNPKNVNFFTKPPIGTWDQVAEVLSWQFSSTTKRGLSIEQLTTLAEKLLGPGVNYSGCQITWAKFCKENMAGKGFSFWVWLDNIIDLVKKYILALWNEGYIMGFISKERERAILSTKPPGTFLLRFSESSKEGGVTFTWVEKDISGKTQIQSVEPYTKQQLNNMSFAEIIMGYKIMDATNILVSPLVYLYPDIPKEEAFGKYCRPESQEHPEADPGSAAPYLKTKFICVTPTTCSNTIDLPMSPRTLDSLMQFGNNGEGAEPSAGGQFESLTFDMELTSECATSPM

SU-DHL-1 tumor cells = test: Xenograph tumor study, SU-DHL-1; assay type: in vivo, NOD SCID mice; details: for tumor volume, 5 days / tumor volume, 10 days / tumor volume, 15 days / tumor volume, 20 days: SUDHL-1 xenograph, 2.5-30 mg/kg, 2 days on/5 days off
Protocol: (§2) Animals: 50 6-8 week old female NOD SCID mice weighing 18 to 20 grams. 25 mice were used in each study.
(§3) Method for Tumor Inoculation: Each mouse was inoculated subcutaneously with SU-DHL-1 tumor cells (1×107+Matrigel) or SUP-M2 tumor cells (5×106+Matrigel) in 0.1 ml of RPMI1640 medium supplemented with 10% FBS, 100 U/ml penicillin and […] streptomycin for tumor development. Mice were then assigned to groups such that the mean tumor volume was the same for each treatment group and time point. […] Vehicle was 25% HP-β-CD in water adjusted to pH 7.4.
(§4) Measurement Parameters: Study animals were monitored not only for tumor growth but also behavior such as mobility, food and water consumption (by cage side checking only), body weight (BW), eye/hair matting and any other abnormal effect. Any mortality and/or abnormal clinical signs was recorded. Sponsor was notified immediately if abnormal clinical signs, or if tolerability issues were observed. Body weights of all animals were measured and recorded twice per week. The measurement of tumor size was conducted twice weekly with a caliper and recorded. The tumor volume (mm3) was estimated using the formula: TV=a×b2/2, where “a” and “b” are long and short diameters of a tumor, respectively.

SUP-M2 tumor cells = test: Xenograph tumor study, SUP-M2; assay type: in vivo, NOD SCID mice; details: ALK+ALCL xenograph model SUP-M2, intermittent dosing, FIG. 20
Protocol: as §2, §3, §4

SU-DHL-1 cells = test: wash-out study in SU-DHL-1 cells; assay type: cell-based; details: after 4 days
Protocol: FIG. 10 depicts wash-out study results with I-103 at 24 hours (A) and 48 hours (B).

KI-JK cells = test: CellTiter-Glo cell viability, KI-JK; assay type: cell-based
PD-L1 = test: STAT3 RT-qPCR assay, PD-L1 mRNA; assay type: cell-based; details: SU-DHL-1 cells
Protocol: as §1

[3] = 96 h, ALCL (ALK+), Day 4, read-out: CTG, IC50 μM, Day 4

Structure (SMILES): Cn1c(=O)n(C2CCC(=O)NC2=O)c2ccc(C[C@H]3CC[C@@H](CC(=O)N4CC[C@H]5CC[C@@H](C(=O)N[C@@H](CCC(N)=O)C(=O)NC(c6ccccc6)c6ccccc6)N5C(=O)[C@@H](NC(=O)c5cc6cc(C(=O)P(=O)(O)O)ccc6[nH]5)C4)CC3)cc21 (stereo partly drawn) [Compound I-174, 2-[[(5S,8S,10aR)-8-[[(1S)-3-carbamoyl-1-(diphenylmethylcarbamoyl)propyl]carbamoyl]-6-oxo-3-[2-[(1s,4s)-4-[[1-(2,6-dioxopiperidin-3-yl)-3-methyl-2-oxo-1,3-benzodiazol-5-yl]methyl]cyclohexyl]acetyl]-octahydropyrrolo[1,2-a][1,5]diazocin-5-yl]carbamoyl]-1H-indole-5-carbonylphosphonic acid]
- STAT3-dependent gene expression of STAT3 (STAT3 [1]): downregulates
- growth inhibition in multiple ALK+ALCL cell lines (ALK+ALCL cell lines): mediated growth inhibition
- IC50 (DEL cells; [3]): 0.016 µM
- CTG (% Max inh), Day 4 (DEL cells; ALCL (ALK+), Day 4): (95) %
- cell proliferation (DEL cells; FIG. 16): inhibit
- decrease of STAT3 necessary to induce SU-DHL-1 apoptosis and inhibit cell growth (SU-DHL-1): 90%
- degradation in multiple ALK+ALCL cell lines (STAT3 [2]): mediated degradation
- tumor regression (SU-DHL-1 tumor cells; ALK+ALCL xenograph model SU-DHL-1, intermittent dosing, FIG. 19): achieves tumor regression
- tumor volume, 5 days (SU-DHL-1 tumor cells; IP): A (A<500 mm^3)
- tumor volume, 10 days (SU-DHL-1 tumor cells; IP): A (A<500 mm^3)
- tumor volume, 15 days (SU-DHL-1 tumor cells; IP): A (A<500 mm^3)
- tumor volume, 20 days (SU-DHL-1 tumor cells; IP): A (A<500 mm^3)
- tumor volume, 5 days (SU-DHL-1 tumor cells; IV): A (A<500 mm^3)
- tumor volume, 10 days (SU-DHL-1 tumor cells; IV): A (A<500 mm^3)
- tumor volume, 15 days (SU-DHL-1 tumor cells; IV): A (A<500 mm^3)
- tumor volume, 20 days (SU-DHL-1 tumor cells; IV): A (A<500 mm^3)
- tumor regression (SUP-M2 tumor cells): achieves tumor regression
- growth and cell death after wash-out (SU-DHL-1 cells; 24 hours wash-out): strong growth inhibition and potential cell death
- growth and cell death after wash-out (SU-DHL-1 cells; 48 hours wash-out): complete growth inhibition and cell death
- IC50 (KI-JK cells; [3]): 0.047 µM
- CTG (% Max inh), Day 4 (KI-JK cells; ALCL (ALK+), Day 4): (97) %
- cell proliferation (KI-JK cells; FIG. 16): inhibit
- IC50 (PD-L1; Homo sapiens, 24 hr): 0.029 µM
- STAT3-dependent gene expression of PDL-1 (PD-L1; FIG. 5A, FIG. 15): downregulates
